Measured values from patent US7851473B2, “Amide compound” (Takeda Pharmaceutical Company Limited, priority 2004, dated 2010).
Where a name gives a salt, the structure may show the parent alone.

molecular target: T1, human FAAH (Homo sapiens, UniProt O00519); test: Measurement of FAAH inhibitory activity (anandamide [ethanolamine 1-3H] hydrolysis, filter plate); type: biochemical; conditions: test compound 1 μM; CHO-K1/human FAAH enzyme fraction; anandamide 25 nM; 37° C., 30 minutes; read-out: Human FAAH Inhibition Rate at 1 μM (%)
T1 construct: made in house; 10000 g pellet suspended in M-PER
T1 sequence (O00519 1-579): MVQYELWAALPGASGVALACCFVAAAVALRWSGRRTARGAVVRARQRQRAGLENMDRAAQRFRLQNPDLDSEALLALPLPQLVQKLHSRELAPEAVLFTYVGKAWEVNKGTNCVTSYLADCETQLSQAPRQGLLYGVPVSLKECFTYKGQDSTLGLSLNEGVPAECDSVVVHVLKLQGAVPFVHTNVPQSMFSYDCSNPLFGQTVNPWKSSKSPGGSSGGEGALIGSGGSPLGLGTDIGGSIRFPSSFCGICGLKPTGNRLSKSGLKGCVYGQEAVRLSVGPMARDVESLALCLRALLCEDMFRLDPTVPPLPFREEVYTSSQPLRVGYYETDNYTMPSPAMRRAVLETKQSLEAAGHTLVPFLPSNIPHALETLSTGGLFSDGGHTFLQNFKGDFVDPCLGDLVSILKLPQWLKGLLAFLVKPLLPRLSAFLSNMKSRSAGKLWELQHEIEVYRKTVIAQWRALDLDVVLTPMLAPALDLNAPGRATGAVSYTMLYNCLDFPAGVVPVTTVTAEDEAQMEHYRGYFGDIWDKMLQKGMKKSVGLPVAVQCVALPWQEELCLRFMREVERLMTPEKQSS
Experimental: (1) Preparation of Enzyme Fraction
The FAAH gene was cloned by PCR. That is, a human brain library was used as a cDNA library, 5′-[…]-3′ [SEQ ID NO:1] and 5′-[…]-3′ [SEQ ID NO:2] were used as a primer set, and KOD DNA polymerase (Toyobo Co., Ltd.) was used as a DNA polymerase. One cycle of the reaction comprises 95° C. for 30 sec, 55° C. for 30 sec and 72° C. for 2 min, and 45 cycles of the reaction was carried out to obtain an amplified fragment. The amplified fragment was cleaved with restriction enzymes EcoRI and SalI, and then was inserted into a pMSRα vector which had been cleaved with the same restriction enzymes EcoRI and SalI to obtain a pMSRα-human FAAH. A cell line CHO-K1 and the above-obtained plasmid were subjected to a method known per se to prepare the cell line CHO-K1/human FAAH in which human FAAH was stably expressed. The CHO-K1/human FAAH was cultured in a CO2 incubator at 37° C., using a medium (Ham's F-12 medium supplemented with final concentration 10% of fetal bovine serum (FBS) and final concentration 800 μg/ml of G418), and then the cells were harvested. After washing with PBS, the cells were suspended in a buffer (10 mM Tris, 1 mM EDTA and 10 mM MgCl2, all at final concentrations) and disrupted with a Polytron homogenizer. After centrifugation at 900 g, the supernatant was recovered and further centrifuged at 10000 g. A pellet obtained therefrom was suspended in M-PER (Catalog No. 78501; PIERCE) to give an enzyme fraction.
Using a white walled 96-well plate (Coster Corp.), the test compound at various concentrations, 60 ng of the enzyme fraction and the substrate anandamide [ethanolamine 1-^3H] (final concentration 25 nM) were reacted in 50 μl of a reaction buffer (125 mM Tris-HCl (pH 9.0), 1 mM EDTA, 0.4 mM HEPES, 0.2% glycerol and 0.02% Triton X-100, all at final concentrations) at 37° C. for 30 minutes. The reaction mixture was transferred to a 96-well MultiScreen-HA filter plate (Millipore Corp.) and then was left to stand overnight at room temperature in order to allow the unreacted substrate to be adsorbed on the filter. The plate was washed with PBS using a MultiScreen Vacuum Manifold (Millipore Corp.) and dried. To each well, 50 μl of liquid scintillation cocktail was added and stirred, and then counting was performed with a TopCount (Perkin-Elmer Corp.). The count of a sample containing a solvent instead of the test compound was taken as 0%, and the count at zero time was taken as 100%, to calculate the inhibitory activity of the compound.

SMILES	inhibition at 1 µM [%]
CCc1sc(N2CCN(C(=O)Nc3ccc(NC(C)=O)nc3)CC2)nc1-c1ccccc1 [Example 226, N-[6-(Acetylamino)pyridin-3-yl]-4-(5-ethyl-4-phenyl-1,3-thiazol-2-yl)piperazine-1-carboxamide]	104
O=C(Nc1ccc2[nH]nnc2c1)N1CCN(c2nc(-c3ccccc3)ns2)CC1 [Example 71, N-1H-1,2,3-Benzotriazol-5-yl-4-(3-phenyl-1,2,4-thiadiazol-5-yl)piperazine-1-carboxamide]	108
O=C(Nc1cccnc1)N1CCN(c2nc(-c3cccc(Cl)c3Cl)cs2)CC1 [Example 283, 4-[4-(2,3-Dichlorophenyl)-1,3-thiazol-2-yl]-N-pyridin-3-ylpiperazine-1-carboxamide]	102
O=C(Nc1noc2ccccc12)N1CCN(c2nc(-c3ccccc3)ns2)CC1 [Example 1, N-1,2-Benzisoxazol-3-yl-4-(3-phenyl-1,2,4-thiadiazol-5-yl)piperazine-1-carboxamide]	100
O=C(Nc1noc2ccccc12)N1CCN(C(=O)OCc2ccccc2)CC1 [Example 95, Benzyl 4-[(1,2-benzisoxazol-3-ylamino)carbonyl]piperazine-1-carboxylate]	100
O=C(Nc1cccnn1)N1CCN(c2nc(-c3cccc(F)c3)cs2)CC1 [Example 228, 4-[4-(3-Fluorophenyl)-1,3-thiazol-2-yl]-N-pyridazin-3-ylpiperazine-1-carboxamide]	106
O=C(Nc1cccnc1)N1CCN(c2nc(-c3cccc(F)c3F)cs2)CC1 [Example 262, 4-[4-(2,3-Difluorophenyl)-1,3-thiazol-2-yl]-N-pyridin-3-ylpiperazine-1-carboxamide]	106
Cc1noc(NC(=O)N2CCN(c3nc(-c4cccc(Cl)c4)cs3)CC2)c1C [Example 276, 4-[4-(3-Chlorophenyl)-1,3-thiazol-2-yl]-N-(3,4-dimethylisoxazol-5-yl)piperazine-1-carboxamide]	104
O=C(Nc1cccnn1)N1CCN(c2nc(-c3cccc(F)c3F)cs2)CC1 [Example 272, 4-[4-(2,3-Difluorophenyl)-1,3-thiazol-2-yl]-N-pyridazin-3-ylpiperazine-1-carboxamide]	102
Cc1noc(NC(=O)N2CCN(c3nc(-c4cccc(C(F)(F)F)c4)cs3)CC2)c1C [Example 278, N-(3,4-Dimethylisoxazol-5-yl)-4-{4-[3-(trifluoromethyl)phenyl]-1,3-thiazol-2-yl}piperazine-1-carboxamide]	104
Cc1noc(NC(=O)N2CCN(c3nc(-c4ccc(F)cc4F)cs3)CC2)c1C [Example 260, 4-[4-(2,4-Difluorophenyl)-1,3-thiazol-2-yl]-N-(3,4-dimethylisoxazol-5-yl)piperazine-1-carboxamide]	102
O=C(Nc1noc2ccccc12)N1CCN(c2nc(N3CCCCC3)ns2)CC1 [Example 17, N-1,2-Benzisoxazol-3-yl-4-(3-piperidin-1-yl-1,2,4-thiadiazol-5-yl)piperazine-1-carboxamide]	95
O=C(Nc1cccnc1)N1CCN(c2nc(-c3ccccc3)cs2)CC1 [Example 94, 4-(4-Phenyl-1,3-thiazol-2-yl)-N-pyridin-3-ylpiperazine-1-carboxamide]	100
Cc1noc(NC(=O)N2CCN(c3nc(-c4cccc(Cl)c4Cl)cs3)CC2)c1C [Example 284, 4-[4-(2,3-Dichlorophenyl)-1,3-thiazol-2-yl]-N-(3,4-dimethylisoxazol-5-yl)piperazine-1-carboxamide]	128

Next, values leading:

inhibition at 1 µM [%]	SMILES
105	O=C(Nc1cnccn1)N1CCN(c2nc(-c3cccc(F)c3)cs2)CC1 [Example 229, 4-[4-(3-Fluorophenyl)-1,3-thiazol-2-yl]-N-pyrazin-2-ylpiperazine-1-carboxamide]
100	O=C(Nc1cccnc1)N1CCN(c2nc(-c3ccccc3)ns2)CC1 [Example 85, 4-(3-Phenyl-1,2,4-thiadiazol-5-yl)-N-pyridin-3-ylpiperazine-1-carboxamide hydrochloride]
106	Cc1noc(NC(=O)N2CCC(c3nc(-c4ccc(F)cc4)cs3)CC2)c1C [Example 236, N-(3,4-Dimethylisoxazol-5-yl)-4-[4-(4-fluorophenyl)-1,3-thiazol-2-yl]piperidine-1-carboxamide]
106	O=C(Nc1cnccn1)N1CCN(c2nc(-c3ccccc3)cs2)CC1 [Example 166, 4-(4-Phenyl-1,3-thiazol-2-yl)-N-pyrazin-2-ylpiperazine-1-carboxamide]
103	Cc1noc(NC(=O)N2CCC(c3nc(-c4ccccc4)cs3)CC2)c1C [Example 190, N-(3,4-Dimethylisoxazol-5-yl)-4-(4-phenyl-1,3-thiazol-2-yl)piperidine-1-carboxamide]
100	COc1cccc(-c2csc(N3CCN(C(=O)Nc4onc(C)c4C)CC3)n2)c1 [Example 277, N-(3,4-Dimethylisoxazol-5-yl)-4-[4-(3-methoxyphenyl)-1,3-thiazol-2-yl]piperazine-1-carboxamide]
101	O=C(Nc1cccnn1)N1CCN(c2nc(-c3ccccc3)ns2)CC1 [Example 147, 4-(3-Phenyl-1,2,4-thiadiazol-5-yl)-N-pyridazin-3-ylpiperazine-1-carboxamide]
94	Cc1cccc(-c2csc(N3CCN(C(=O)Nc4cccnc4)CC3)n2)c1 [Example 275, 4-[4-(3-Methylphenyl)-1,3-thiazol-2-yl]-N-pyridin-3-ylpiperazine-1-carboxamide]
100	O=C(Nc1noc2ccccc12)N1CCN(c2nc(-c3ccccc3)co2)CC1 [Example 23, N-1,2-Benzisoxazol-3-yl-4-(4-phenyl-1,3-oxazol-2-yl)piperazine-1-carboxamide]
94	O=C(Nc1noc2ccccc12)N1CCN(c2nc(-c3ccccc3)no2)CC1 [Example 22, N-1,2-Benzisoxazol-3-yl-4-(3-phenyl-1,2,4-oxadiazol-5-yl)piperazine-1-carboxamide]
86	Cc1cccc(-c2csc(N3CCN(C(=O)Nc4onc(C)c4C)CC3)n2)c1 [Example 280, N-(3,4-Dimethylisoxazol-5-yl)-4-[4-(3-methylphenyl)-1,3-thiazol-2-yl]piperazine-1-carboxamide]
98	CC(C)c1nsc(N2CCN(C(=O)Nc3noc4ccccc34)CC2)n1 [Example 9, N-1,2-Benzisoxazol-3-yl-4-(3-isopropyl-1,2,4-thiadiazol-5-yl)piperazine-1-carboxamide]
102	O=C(Nc1noc2ccccc12)N1CCN(c2nc(-c3ccccn3)ns2)CC1 [Example 15, N-1,2-Benzisoxazol-3-yl-4-(3-pyridin-2-yl-1,2,4-thiadiazol-5-yl)piperazine-1-carboxamide]
